Laboratory results published in patent US12162872B2, “Cycloalkylurea derivative” (Sumitomo Pharma Co., Ltd., priority 2019, dated 2024).

The compounds below were run against T1, Human orexin receptor type 2 (Homo sapiens, UniProt O43614) (assay: Test 1: Evaluation of agonist activity for orexin receptor type 2 (aequorin luminescence, intracellular calcium mobilization in CHO cells)). Details: relative percentage of luminescence for the luminescence (100%) of Orexin A (100 pM); CHO cells transiently expressing human orexin receptor type 2 and apoaequorin; Orexin A Lot. 641114.
T1 construct: expressed in transfected cells; host or cells: CHO cells (transient expression)
T1 sequence (O43614 1-444): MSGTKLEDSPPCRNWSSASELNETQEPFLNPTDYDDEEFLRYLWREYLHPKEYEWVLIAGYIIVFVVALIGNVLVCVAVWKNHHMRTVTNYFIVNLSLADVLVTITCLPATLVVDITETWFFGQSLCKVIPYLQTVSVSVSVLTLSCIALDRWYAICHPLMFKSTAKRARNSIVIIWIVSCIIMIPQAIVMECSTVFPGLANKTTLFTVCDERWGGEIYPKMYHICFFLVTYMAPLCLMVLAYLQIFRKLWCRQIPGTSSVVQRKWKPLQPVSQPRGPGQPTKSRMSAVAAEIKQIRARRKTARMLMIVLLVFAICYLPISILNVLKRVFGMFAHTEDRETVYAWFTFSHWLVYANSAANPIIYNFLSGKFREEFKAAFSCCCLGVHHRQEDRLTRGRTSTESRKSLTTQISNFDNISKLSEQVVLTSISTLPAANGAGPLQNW
Format: cell-based
Method: Test 1: Evaluation of Agonist Activity for Orexin Receptor Type 2
Human orexin receptor type 2 and apoaequorin were transiently expressed in CHO cells, and the agonist activity was evaluated based on intracellular calcium mobilization with ligand stimulation. The CHO cells transiently-expressed human orexin receptor type 2 and apoaequorin were seeded on a 384-well plate by 2,000 cells/well, and then incubated for 16-22 hours. After the plate was returned to room temperature, Coelenterazine hcp (final concentration: 1 μM) was added to the plate, and the plate was allowed to stand at room temperature for 2 hours. And then, Orexin A (PEPTIDE INSTITUTE, INC., Lot. 641114) or each test compound was added to the plate, and the luminescence of the cells was measured with FDSS7000 (Hamamatsu Photonics K.K.), wherein Orexin A and each test compound were dissolved in DMSO (final concentration: 0.1%), and diluted with a buffer (Hanks, 20 mM HEPES, 0.1% BSA). The agonist activity of each test compound for orexin receptor type 2 was calculated as relative percentage of luminescence for the luminescence (100%) of Orexin A (100 pM).

SMILES | agonist activity (%)
CC(C)N1CCN([C@H]2CCCC(F)(F)[C@@H]2NC(=O)N2CCC(C)(c3nc4ccccc4o3)CC2)CC1 (racemic) [Example 21, rac-4-(1,3-benzoxazol-2-yl)-N-{(1R,6S)-2,2-difluoro-6-[4-(propan-2-yl)piperazin-1-yl]cyclohexyl}-4-methylpiperidine-1-carboxamide] | 153%
CC(C)N1CCN([C@H]2CCCC(F)(F)[C@@H]2NC(=O)N2CCC(C)(C3CCC(F)(F)CC3)CC2)CC1 (racemic) [Example 30, rac-4-(4,4-difluorocyclohexyl)-N-{(1R,6S)-2,2-difluoro-6-[4-(propan-2-yl)piperazin-1-yl]cyclohexyl}-4-methylpiperidine-1-carboxamide] | 128%
CC(C)N1CCN([C@H]2CCCC(F)(F)[C@@H]2NC(=O)N2CCC(c3ccccn3)CC2)CC1 (racemic) [Example 32, rac-N-{(1R,6S)-2,2-difluoro-6-[4-(propan-2-yl)piperazin-1-yl]cyclohexyl}-4-(pyridin-2-yl)piperidine-1-carboxamide] | 176%
CC(C)N1CCN([C@H]2CCCC(F)(F)[C@@H]2NC(=O)N2CCC3(CCCC3)CC2)CC1 (racemic) [Example 33, rac-N-{(1R,6S)-2,2-difluoro-6-[4-(propan-2-yl)piperazin-1-yl]cyclohexyl}-8-azaspiro[4.5]decane-8-carboxamide] | 123%
CC(C)N1CCN([C@H]2CCCC(F)(F)[C@@H]2NC(=O)N2CCC(C3CCCCC3)CC2)CC1 (racemic) [Example 35, rac-4-cyclohexyl-N-{(1R,6S)-2,2-difluoro-6-[4-(propan-2-yl)piperazin-1-yl]cyclohexyl}piperidine-1-carboxamide] | 165%
CC(C)N1CCN([C@H]2CCCC(F)(F)[C@@H]2NC(=O)N2CCC(c3ncccn3)CC2)CC1 (racemic) [Example 36, rac-N-{(1R,6S)-2,2-difluoro-6-[4-(propan-2-yl)piperazin-1-yl]cyclohexyl}-4-(pyrimidin-2-yl)piperidine-1-carboxamide] | 114%
CC(C)N1CCN([C@H]2CCCC(F)(F)[C@@H]2NC(=O)N2CCC(O)(c3ccccn3)CC2)CC1 (racemic) [Example 37, rac-N-{(1R,6S)-2,2-difluoro-6-[4-(propan-2-yl)piperazin-1-yl]cyclohexyl}-4-hydroxy-4-(pyridin-2-yl)piperidine-1-carboxamide] | 45%
CC(C)N1CCN([C@H]2CCCC(F)(F)[C@@H]2NC(=O)N2CCC(c3ccccc3)CC2)CC1 (racemic) [Example 38, rac-N-{(1R,6S)-2,2-difluoro-6-[4-(propan-2-yl)piperazin-1-yl]cyclohexyl}-4-phenylpiperidine-1-carboxamide] | 142%
CC(C)N1CCN([C@H]2CCCC(F)(F)[C@@H]2NC(=O)N2CCC(O)(c3ccc(Cl)cc3)CC2)CC1 (racemic) [Example 41, rac-4-(4-chlorophenyl)-N-{(1R,6S)-2,2-difluoro-6-[4-(propan-2-yl)piperazin-1-yl]cyclohexyl}-4-hydroxypiperidine-1-carboxamide] | 23%
CC(C)N1CCN([C@H]2CCCC(F)(F)[C@@H]2NC(=O)N2CCC(C)(Oc3ccccn3)CC2)CC1 (racemic) [Example 42, rac-N-{(1R,6S)-2,2-difluoro-6-[4-(propan-2-yl)piperazin-1-yl]cyclohexyl}-4-methyl-4-[(pyridin-2-yl)oxy]piperidine-1-carboxamide] | 141%
CC(C)N1CCN([C@H]2CCCC(F)(F)[C@@H]2NC(=O)N2CCC(F)(c3ccccn3)CC2)CC1 (racemic) [Example 46, rac-N-{(1R,6S)-2,2-difluoro-6-[4-(propan-2-yl)piperazin-1-yl]cyclohexyl}-4-fluoro-4-(pyridin-2-yl)piperidine-1-carboxamide] | 136%
Cc1ccc(C2CCN(C(=O)N[C@@H]3[C@@H](N4CCN(C(C)C)CC4)CCCC3(F)F)CC2)nc1 (racemic) [Example 50, rac-N-{(1R,6S)-2,2-difluoro-6-[4-(propan-2-yl)piperazin-1-yl]cyclohexyl}-4-(5-methylpyridin-2-yl)piperidine-1-carboxamide] | 154%

Further lines, results first:

agonist activity (%) | SMILES
160% | CC(C)N1CCN([C@H]2CCCC(F)(F)[C@@H]2NC(=O)N2CCC(C)(c3cc(C4CC4)on3)CC2)CC1 (racemic) [Example 20, rac-4-(5-cyclopropyl-1,2-oxazol-3-yl)-N-{(1R,6S)-2,2-difluoro-6-[4-(propan-2-yl)piperazin-1-yl]cyclohexyl}-4-methylpiperidine-1-carboxamide]
198% | CC(C)N1CCN([C@H]2CCCC(F)(F)[C@@H]2NC(=O)N2CCC(C)(C3CCCC3)CC2)CC1 (racemic) [Example 26, rac-4-cyclopentyl-N-{(1R,6S)-2,2-difluoro-6-[4-(propan-2-yl)piperazin-1-yl]cyclohexyl}-4-methylpiperidine-1-carboxamide]
162% | CC(C)N1CCN([C@H]2CCCC(F)(F)[C@@H]2NC(=O)N2CCC(C)(c3nc4c(o3)CCCC4)CC2)CC1 (racemic) [Example 27, rac-N-{(1R,6S)-2,2-difluoro-6-[4-(propan-2-yl)piperazin-1-yl]cyclohexyl}-4-methyl-4-(4,5,6,7-tetrahydro-1,3-benzoxazol-2-yl)piperidine-1-carboxamide]
190% | CCc1nc(C2(C)CCN(C(=O)N[C@@H]3[C@@H](N4CCN(C(C)C)CC4)CCCC3(F)F)CC2)no1 (racemic) [Example 28, rac-N-{(1R,6S)-2,2-difluoro-6-[4-(propan-2-yl)piperazin-1-yl]cyclohexyl}-4-(5-ethyl-1,2,4-oxadiazol-3-yl)-4-methylpiperidine-1-carboxamide]
109% | CC(C)N1CCN([C@H]2CCCC(F)(F)[C@@H]2NC(=O)N2CCC(C)(c3ncn(C4CC4)n3)CC2)CC1 (racemic) [Example 29, rac-4-(1-cyclopropyl-?H-1,2,4-triazol-3-yl)-N-{(1R,6S)-2,2-difluoro-6-[4-(propan-2-yl)piperazin-1-yl]cyclohexyl}-4-methylpiperidine-1-carboxamide]
168% | CC(C)N1CCN([C@H]2CCCC(F)(F)[C@@H]2NC(=O)N2CCC(C)(c3nsc(C4CC4)n3)CC2)CC1 (racemic) [Example 31, rac-4-(5-cyclopropyl-1,2,4-thiadiazol-3-yl)-N-{(1R,6S)-2,2-difluoro-6-[4-(propan-2-yl)piperazin-1-yl]cyclohexyl}-4-methylpiperidine-1-carboxamide]
183% | CC(C)N1CCN([C@H]2CCCC(F)(F)[C@@H]2NC(=O)N2CCC(C)(c3nnc(C4CC4)s3)CC2)CC1 (racemic) [Example 34, rac-4-(5-cyclopropyl-1,3,4-thiadiazol-2-yl)-N-{(1R,6S)-2,2-difluoro-6-[4-(propan-2-yl)piperazin-1-yl]cyclohexyl}-4-methylpiperidine-1-carboxamide]
157% | CC(C)N1CCN([C@H]2CCCC(F)(F)[C@@H]2NC(=O)N2CCC(C)(c3ccccc3)CC2)CC1 (racemic) [Example 39, rac-N-{(1R,6S)-2,2-difluoro-6-[4-(propan-2-yl)piperazin-1-yl]cyclohexyl}-4-methyl-4-phenylpiperidine-1-carboxamide]
150% | COc1nc(C2(C)CCN(C(=O)N[C@@H]3[C@@H](N4CCN(C(C)C)CC4)CCCC3(F)F)CC2)ns1 (racemic) [Example 45, rac-N-{(1R,6S)-2,2-difluoro-6-[4-(propan-2-yl)piperazin-1-yl]cyclohexyl}-4-(5-methoxy-1,2,4-thiadiazol-3-yl)-4-methylpiperidine-1-carboxamide]
163% | CC(C)N1CCN([C@H]2CCCC(F)(F)[C@@H]2NC(=O)N2CCC(C)(c3csc(C4CC4)n3)CC2)CC1 (racemic) [Example 47, rac-4-(2-cyclopropyl-1,3-thiazol-4-yl)-N-{(1R,6S)-2,2-difluoro-6-[4-(propan-2-yl)piperazin-1-yl]cyclohexyl}-4-methylpiperidine-1-carboxamide]
156% | CC(C)N1CCN([C@H]2CCCC(F)(F)[C@@H]2NC(=O)N2CCC(C)(c3ncc(C4CC4)s3)CC2)CC1 (racemic) [Example 48, rac-4-(5-cyclopropyl-1,3-thiazol-2-yl)-N-{(1R,6S)-2,2-difluoro-6-[4-(propan-2-yl)piperazin-1-yl]cyclohexyl}-4-methylpiperidine-1-carboxamide]
